Patent publication US8541460B2, “PDK-1/Akt signaling inhibitors” (The Ohio State University, priority 2003, dated 2013)

Key:
[1] = tested on: BT-549; experiment: NCI DTP cell line screen (SRB), Breast Cancer; format: cell-based
[2] = tested on: SF-268; experiment: NCI DTP cell line screen (SRB), CNS Cancer; format: cell-based
Protocol: (§1) Screening of compounds 70 and 71 against several cancer cell lines The human tumor cell lines of the cancer screening panel are grown in RPMI 1640 medium containing 5% fetal bovine serum and 2 mM L-glutamine. For a typical screening experiment, cells are inoculated into 96 well microtiter plates in 100 μL at plating densities ranging from 5,000 to 40,000 cells/well depending on the doubling time of individual cell lines. After cell inoculation, the microtiter plates are incubated at 37° C., 5% CO2, 95% air and 100% relative humidity for 24 h prior to addition of experimental drugs.
(§2) After 24 h, two plates of each cell line are fixed in situ with TCA, to represent a measurement of the cell population for each cell line at the time of drug addition (Tz). Experimental drugs are solubilized in dimethyl sulfoxide at 400-fold the desired final maximum test concentration and stored frozen prior to use. At the time of drug addition, an aliquot of frozen concentrate is thawed and diluted to twice the desired final maximum test concentration with complete medium containing 50 μg/ml gentamicin. Additional four, 10-fold or ½ log serial dilutions are made to provide a total of five drug concentrations plus control. Aliquots of 100 μl of these different drug dilutions are added to the appropriate microtiter wells already containing 100 μl of medium, resulting in the required final drug concentrations.
(§3) Following drug addition, the plates are incubated for an additional 48 h at 37° C., 5% CO2, 95% air, and 100% relative humidity. For adherent cells, the assay is terminated by the addition of cold TCA. Cells are fixed in situ by the gentle addition of 50 μl of cold 50% (w/v) TCA (final concentration, 10% TCA) and incubated for 60 minutes at 4° C. The supernatant is discarded, and the plates are washed five times with tap water and air dried. Sulforhodamine B (SRB) solution (100 μl) at 0.4% (w/v) in 1% acetic acid is added to each well, and plates are incubated for 10 minutes at room temperature. After staining, unbound dye is removed by washing five times with 1% acetic acid and the plates are air dried. Bound stain is subsequently solubilized with 10 mM trizma base, and the absorbance is read on an automated plate reader at a wavelength of 515 nm. For suspension cells, the methodology is the same except that the assay is terminated by fixing settled cells at the bottom of the wells by gently adding 50 μl of 80% TCA (final concentration, 16% TCA). Using the seven absorbance measurements [time zero, (Tz), control growth, (C), and test growth in the presence of drug at the five concentration levels (Ti)], the percentage growth is calculated at each of the drug concentrations levels. Percentage growth inhibition is calculated as: [(Ti−Tz)/(C−Tz)]×100 for concentrations for which Ti>/=Tz [(Ti−Tz)/Tz]×100 for concentrations for which Ti<Tz
(§4) Three dose response parameters are calculated for each experimental agent. […] The drug concentration resulting in total growth inhibition (TGI) is calculated from Ti=Tz. […] Values are calculated for each of these three parameters if the level of activity is reached; however, if the effect is not reached or is exceeded, the value for that parameter is expressed as greater or less than the maximum or minimum concentration tested.
(§5) The methods described were used to test compounds 70 and 71 on a panel of sixty cell lines under a screening service provided by the Developmental Therapeutics Program at the National Institutes of Health. Shown in FIG. 1C are 1, RPMI-8226 leukemia cells; 2; NCI-H322M non-small cell lung cancer cells; 3, HT29 colon cancer cells; 4, U251 CNS cancer cells; 5, SK-MEL-28 melanoma cancer cells; 6, SK-OV-3 ovarian cancer cells; 7, RXF 393 renal cancer cells; 8, PC-3 prostate cancer cells; 9, MDA-MB-231 breast cancer cells.

[3] = tested on: SF-295; experiment: NCI DTP cell line screen (SRB), CNS Cancer; format: cell-based
Protocol: as §1, §2, §3, §4, §5

[4] = tested on: PC-3 cells; experiment: PC-3 cell viability analysis (MTT); format: cell-based, human; conditions: inducing apoptotic death in PC-3 cells / PC-3 cell viability; read-out: IC50 PC-3
Protocol: Cell Culture PC-3 (p53−/−) human androgen-nonresponsive prostate cancer cells were purchased from the American […] (Manassas, Va.). Cells were cultured in RPMI 1640 medium (Gibco, Grand Island, N.Y.) supplemented with 10% fetal bovine serum (FBS; Gibco) at 37° C. in a humidified incubator containing 5% CO2.
Cell viability analysis The effect of 4-[5-(4-methylphenyl)-3-(trifluoromethyl)-1H-pyrazol-1-yl]benzenesulfonamide and its derivatives on PC-3 cell viability was assessed by using the MTT {[3-(4,5-dimethylthiazol-2-yl)-2,5-diphenyl-2H-tetrazolium bromide]} assay in six replicates. Cells were grown in 10% FBS-supplemented RPMI 1640 medium in 96-well, flat bottomed plates for 24 h, and were exposed to various concentrations of compounds 1-36 dissolved in DMSO (final concentration≦0.1%) in 1% serum-containing RPMI 1640 medium for different time intervals. Controls received DMSO vehicle at a concentration equal to that in drug-treated cells. The medium was removed, replaced by 200 μl of 0.5 mg/ml of MTT in 10% FBS-containing RPMI-1640 medium, and cells were incubated in the CO2 incubator at 37° C. for 2 h. Supernatants were removed from the wells, and the reduced MTT dye was solubilized in 200 μL/well DMSO. Absorbance at 570 nm was determined on a plate reader.

Structure (SMILES) | TGI [1] | Percent Growth ([1]; Log10 Concentration −4.0) [%] | Percent Growth ([1]; Log10 Concentration −5.0) [%] | Percent Growth ([1]; Log10 Concentration −6.0) [%] | Percent Growth ([1]; Log10 Concentration −7.0) [%] | Percent Growth ([1]; Log10 Concentration −8.0) [%] | TGI [2] | Percent Growth ([2]; Log10 Concentration −4.0) [%] | Percent Growth ([2]; Log10 Concentration −5.0) [%] | Percent Growth ([2]; Log10 Concentration −6.0) [%] | Percent Growth ([2]; Log10 Concentration −7.0) [%] | Percent Growth ([2]; Log10 Concentration −8.0) [%] | TGI [3] | Percent Growth ([3]; Log10 Concentration −4.0) [%] | Percent Growth ([3]; Log10 Concentration −5.0) [%] | Percent Growth ([3]; Log10 Concentration −6.0) [%] | Percent Growth ([3]; Log10 Concentration −7.0) [%] | Percent Growth ([3]; Log10 Concentration −8.0) [%] | IC50 [4] [µM]
NCC(=O)Nc1ccc(-n2nc(C(F)(F)F)cc2-c2ccc3c(ccc4ccccc43)c2)cc1 [Compound 70, 2-Amino-N-{4-[5-(2-phenanthrenyl)-3-(trifluoromethyl)-1H-pyrazol-1-yl]-phenyl}-acetamide] | 2.95E−06 | −60 | −71 | 63 | 86 | 90 | 4.16E−06 | 26 | −33 | 54 | 72 | 84 | 3.71E−06 | −32 | −47 | 62 | 96 | 94 | –
N=C(N)Nc1ccc(-n2nc(C(F)(F)F)cc2-c2ccc3c(ccc4ccccc43)c2)cc1 [Compound 71, 4-[5-(2-Phenanthrenyl)-3-(trifluoromethyl)-1H-pyrazol-1-yl]-phenyl-guanidine] | – | – | – | – | – | – | – | – | – | – | – | – | – | – | – | – | – | – | 3
